From patent US6417197B1, “Acylated n-hydroxy methyl thalidomide prodrugs with immunomodulator action” (Gruenenthal GmbH, priority 1996, dated 2002)
Converted amounts (≈) assume the structure as drawn.

How the values were obtained:
release of TNF-α = test: LPS-induced release of TNF-α in human mononuclear cells of the peripheral blood (ELISA); type: cell-based; conditions: LPS stimulation; for inhibition at 50 µg/mL: read-out: Inhibition of the release of TNF-α at a final concentration of 50 μg/ml; for IC50: Homo sapiens, linear regression line, read-out: IC50 (50% inhibition of the release of TNF-α)
Protocol: The release of TNF-α was investigated in vitro on human mononuclear cells of the peripheral blood (T cells, B cells and monocytes), after stimulation with lipopolysaccharide (LPS). LPS is a constituent of the bacterial cell wall and stimulates monocytes and macrophages.
Mononuclear cells were obtained from the heparin-treated blood of at least three volunteer donors. For this purpose, 20 ml blood in each case were separated by known methods via a Ficoll-Paque gradient, and the cells were harvested and washed three times with a cell culture medium. The cell culture medium which was used consisted of RPMI 1640 medium, supplemented with 2 mM glutamine (Life Technologies, Eggenstein), 10% foetal calf serum (Life Technologies), […] streptomycin (Sigma, Deisenhofen), 50 IU/ml penicillin (Sigma, Deisenhofen) and 100 μM β-mercaptoethanol (Merck, Darmstadt). The mononuclear cells were subsequently taken up in 15 ml cell culture medium and were divided into 1 ml batches in sterile 24-hole incubation plates (Sigma) 1 μl dimethylsulphoxide (DMSO, Merck) was added to the 1 ml batches which were used as the control batch. 1 μl of a solution of a compound according to the invention (in DMSO; final concentration in the test: 0.5; 5; 12.5 and 50 μg/ml) was added to the test batches. The batches were incubated for one hour in a CO2 incubation cabinet (5% CO2, 90% atmospheric humidity). 2.5 μg LPS (from E. coli 0127: B8, Sigma, Deisenhofen) was subsequently added as a stimulant to each batch with the exception of the control batches. Incubation of the cultures was continued for 20 hours. Following the incubation, the concentration of TNF-α in the cell culture supernatant liquors was determined by ELISA tests (Boehringer Mannheim).

serum IL-2 = test: SEB-induced increase in serum IL-2 in galactosamine-pretreated balb/c mice; type: in vivo; conditions: 30 minutes before SEB; for Max. inhibition of the increase in serum IL-2 at a dose of 400 mg/kg: 400 mg/kg intraperitoneally, IL-2 2 hours after SEB, balb/c mice
[1] = for solubility in water, corresponding thalidomide amount: thalidomide equivalent of the water solubility; for solubility: water, 25 °C
[2] = Arch. Pharm. 321, 371 (1988); cited from earlier work
[3] = 50 μg/ml, 20 hours, human mononuclear cells

With “[3-(1,3-dihydro-1,3-dioxo-2H-isoindol-2-yl)-2,6-dioxo-piperidin-1-yl]-methoxycarbonylpropionic acid [Compound 9]” the “Inhibition of the release of TNF-α at a final concentration of 50 μg/ml” value (release of TNF-α; [3]) was 35%.

For CC(C)C(N)C(=O)OCN1C(=O)CCC(N2C(=O)c3ccccc3C2=O)C1=O.Cl (stereo not shown) [Compound 6, 2-amino-3-methylbutyric acid-[3-(1,3-dihydro-1,3-dioxo-2H-isoindol-2-yl)-2,6-dioxopiperidin-1-yl]methyl ester hydrochloride], the “Max. inhibition of the increase in serum IL-2 at a dose of 400 mg/kg” value (shortened to “Max. inhibition of the increase”) (serum IL-2) was 52%, the inhibition at 50 µg/mL (release of TNF-α; [3]) was 97% and the IC50 (release of TNF-α) was 2 µg/mL. The “solubility in water, corresponding thalidomide amount” value (“solubility in water” for short) [1] was > 190 mg thalidomide/ml, the solubility [1] was > 300 mg/mL and the melting point was 145 to 150 °C.

For Cl.NCC(=O)OCN1C(=O)CCC(N2C(=O)c3ccccc3C2=O)C1=O (stereo not shown) [Compound 2, 2-aminoacetic acid-[3-(1,3-dihydro-1,3-dioxo-2H-isoindol-2-yl)-2,6-dioxo-piperidin-1-yl]methyl ester hydrochloride], the “Max. inhibition of the increase” value (serum IL-2) was 68%, the “ED40 (dose giving 40% reduction in serum IL-2 concentrations)” value (serum IL-2; intraperitoneal, regression line) was 230 mg/kg and the inhibition at 50 µg/mL (release of TNF-α; [3]) was 54%. For the same compound, the “solubility in water” value [1] was 33.6 mg thalidomide/ml and the solubility [1] was 497 mg/mL.

For O=C1CCC(N2C(=O)c3ccccc3C2=O)C(=O)N1 (stereo not shown) [thalidomide], the “solubility of thalidomide in water” value [2] is listed as 0.012 mg/mL.

For Cl.NCC(=O)NCC(=O)OCN1C(=O)CCC(N2C(=O)c3ccccc3C2=O)C1=O (stereo not shown) [Compound 8, 2-(aminomethylcarbonylamino) acetic acid-[3(1,3-dihydro-1,3-dioxo-2H-isoindol-2-yl)-2,6-dioxo-piperidin-1-yl]methyl ester hydrochloride], the “solubility in water” value [1] was > 190 mg thalidomide/ml and the solubility [1] was > 300 mg/mL.

For CNC(C)C(=O)OCN1C(=O)CCC(N2C(=O)c3ccccc3C2=O)C1=O.Cl (stereo not shown) [Compound 4, 2-m ethylaminopropionic acid-[3-(1,3-dihydro-1,3-dioxo-2H-isoindol-2-yl)-2,6-dioxopiperidin-1-yl]methyl ester hydrochloride], the “Max. inhibition of the increase” value (serum IL-2) was 26%, the “solubility in water” value [1] was > 190 mg thalidomide/ml and the solubility [1] was > 300 mg/mL. The melting point was 147 to 151 °C.

For CC(C)(C)OC(=O)NCC(=O)OCN1C(=O)CCC(N2C(=O)c3ccccc3C2=O)C1=O (stereo not shown) [Compound 1, N-t-butyl oxycarbonyl-2-aminoacetic acid-[3-(1,3-dihydro-1,3-dioxo-2H-isoindol-2-yl)-2,6-dioxopiperidin-1-yl]methyl ester], the “Max. inhibition of the increase” value (serum IL-2) was 34%, the inhibition at 50 µg/mL (release of TNF-α; [3]) was 78% and the IC50 (release of TNF-α) was 2.7 µg/mL (≈ 6.06 µM).
